Tests used:
GPR84 [1] = target: T1, GPR84 (Homo sapiens, UniProt Q9NQS5); assay: GPR84 [35S]GTPγS binding assay, Tris buffer (alternative); format: biochemical; conditions: 3,3′ di indolylmethane at EC80, membranes from stable cell line over expressing GPR84, read-out: Alternative GPR84 assay GTPγS IC50 (GPR84-2)
T1 construct: expressed in transfected cells
Protocol: 1.1. Cell Based Assay: GTp-γ S Binding Assay.
The following assay can be used for determination of GPR84 activation. The [^35S]GTPγS binding assay measures the level of G protein activation following agonist occupation of a GPCR, by determining the binding of the non-hydrolysable analog [^35S]GTPγS to Gα subunits.
Alternatively, the assay is performed in a 96 well plate where the following reagents are added. First 50 μL compound is added into the assay plate, followed by addition of 20 μL 3,3′ di indolylmethane at EC80 concentration (concentration which gives 80% of the activity of GPR84). In a last step, 30 μL of a mixture consisting of membranes-GTPγS-SpA beads is added [mixture consists of 20 μg/well membranes derived from stable cell line over expressing GPR84 (membranes are pre-incubated with 0.1 μM GDP for 15 min at 4° C.), 0.1 nM [^35S]GTPγS (Perkin Elmer, NEG030) and 0.5 mg/well PVT-WGA SpA beads (Perkin Elmer, RPNQ0001)]. All components are diluted in assay buffer containing 20 mM Tris pH 7.5; 5 mM MgCl2; 250 mM NaCl; 0.05% BSA; 75 ug/mL saponin Reactions are incubated for 90 min at room temperature followed by centrifugation at 2000 rpm during 15 min. Plates are read on a Topcount reader (Perkin Elmer) immediately after centrifugation (readout time, 1 min/well).

human neutrophils = assay: Human neutrophil migration assay (embelin-induced chemotaxis); format: cell-based; conditions: Neutrophil; neutrophils from human buffy coats; embelin at EC80
Protocol: 2.1. Human Neutrophil Migration Assay
The effect of agonists or antagonists for GPR84 can therefore be assayed in a neutrophil migration test. In the neutrophil migration assay, neutrophils, freshly isolated from buffy coats from human volunteers, are treated with a compound for 30 min Subsequently, the neutrophils are transferred to the upper wells of a Corning HTS transwell 96 permeable support system, of which the lower wells are filled with a embelin solution at EC80 (concentration which gives 80% of the activity of GPR84). After 1 h of incubation, migration of the neutrophils towards embelin in the lower compartment can be quantified by measuring the ATP-content of the lower wells using the ATPlite luminescence ATP detection assay system (Perkin Elmer, Cat. No.: 436110).
2.1.1 Isolation of Neutrophils from Human Buffy Coat
A human buffy coat is diluted with an equal volume of ice cold DPBS. 20 mL of the diluted buffy coat is gently mixed with 4 mL of ACD buffer (140 mM citric acid, 200 mM sodium citrate and 220 mM dextrose). Then, 12 mL of the 6% dextran/0.9% NaCl solution (15 g dextran T2000 and 2.25 g NaCl dissolved in 250 mL H2O) is added to the mixture and the samples are inverted gently up to 20 times. The total volume was transferred to a new recipient and incubated at room temperature for 1 h for complete separation of the two phases to occur. The yellowish supernatant is then transferred to a clean centrifugation tube and centrifuged for 12 min at 1300 rpm and 4° C. After centrifugation, the supernatant is discarded and the remaining cell pellet is rapidly resuspended in 12 mL of ice-cold H2O for red blood cell lysis to occur. After 20 seconds, 4 mL of ice-cold 0.6 M KCl is added. Samples are mixed carefully and centrifuged for 6 min at 1300 rpm, 4° C. The supernatant is discarded and the red blood cell lysis procedure is repeated one more time. Subsequently, the cell pellet is resuspended in 4 mL of DPBS and layered over 5 mL of Lymphoprep (Nycomed Pharma, Cat. No.: 1114545) in a 15 mL centrifuge tube. After centrifugation for 12 min at 1300 rpm, 4° C., the supernatant is removed and the cell pellet, containing the neutrophils, is resuspended in 25 mL chemotaxis buffer (RPMI 1640 medium, supplemented with 10 mM HEPES; freshly made for each experiment)
A cell suspension of 8.9×10^6 cells per milliliter is prepared. 20 μL of compound solution in chemotaxis buffer is added to 180 μL cell suspension. The mixture is incubated at 37° C. for 30 min with intermediate resuspension of the cells after 15 min Following this, 70 μL cell suspension is transferred to the upper compartment of a Corning HTS transwell 96 permeable support system with 5.0 μm pore size polycarbonate membrane (Corning, Cat. No.: 3387). The receiver well of the transwell system is then filled with 200 μL chemotaxis buffer containing compound and chemotactic agent (embelin). After incubation at 37° C. in 5% CO2 for 1 h, the upper plate of the transwell system is removed and the cell suspension in the receiver plate is transferred to a 96-well V-bottom plate. 50 μL of DPBS is added to the receiver plate to prevent remaining cells from drying out. The V-bottom plate is centrifuged for 6 min at 1500 rpm. The supernatant is removed and the cells are resuspended in 50 μL DPBS. The cells are then transferred back to the receiver plate of the transwell system. After this, 100 μL ATPlite solution (Perkin Elmer, Cat. No: 436110) was added to the cells. The plate is incubated for 10 min in the dark, while shaking. […] of cell lysate is then transferred to a white 96-well plate and luminescence is measured. The detected luminescent signal is considered as linearely related to the number of cells having migrated from the upper well to the receiver well.

GPR84 [2] = target: T1, GPR84; conditions: literature reports; cited from earlier work
[3] = tested on: RAW264.7 murine macrophage-like cells; conditions: RAW264.7 cells stimulated with LPS; cited from earlier work

T1 sequence (Q9NQS5 whole entry): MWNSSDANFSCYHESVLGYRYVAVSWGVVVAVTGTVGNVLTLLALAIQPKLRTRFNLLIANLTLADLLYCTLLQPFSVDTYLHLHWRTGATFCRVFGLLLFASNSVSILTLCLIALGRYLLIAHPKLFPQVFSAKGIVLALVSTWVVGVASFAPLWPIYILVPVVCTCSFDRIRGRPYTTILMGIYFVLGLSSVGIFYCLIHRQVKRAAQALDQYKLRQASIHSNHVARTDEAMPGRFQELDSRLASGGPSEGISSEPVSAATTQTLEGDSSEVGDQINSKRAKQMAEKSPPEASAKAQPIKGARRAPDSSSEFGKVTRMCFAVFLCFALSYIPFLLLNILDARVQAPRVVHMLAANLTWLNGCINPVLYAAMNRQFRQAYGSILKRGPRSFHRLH

IC50 (GPR84 [1]) | IC50 (human neutrophils) | SMILES | GPR84 agonist activity (GPR84 [2]) | secretion of interleukin-12 p40 subunit (IL-12 p40) [3]
0.01 to 100 nM | 0.01 to 100 nM | O=c1nc(OCC2COc3ncccc3O2)cc2n1CCc1cc(C#CC3(O)CCCC3)ccc1-2 (stereo not shown) [compound 142, 2-(2,3-Dihydro-[1,4]dioxino[2,3-b]pyridin-2-ylmethoxy)-9-(1-hydroxy-cyclopentylethynyl)-6,7-dihydro-pyrimido[6,1-a]isoquinolin-4-one] |  | 
0.01 to 100 nM | 0.01 to 100 nM | COc1ccc(-c2ccc3c(c2)CCn2c-3cc(OCC3COc4ncccc4O3)nc2=O)cn1 (stereo not shown) [compound 118, 2-(2,3-Dihydro-[1,4]dioxino[2,3-b]pyridin-2-ylmethoxy)-9-(6-methoxy-pyridin-3-yl)-6,7-dihydro-pyrimido[6,1-a]isoquinolin-4-one] |  | 
100 to 500 nM | 0.01 to 100 nM | O=c1nc(OCC2COc3ncccc3O2)cc2n1CCc1cc(C#Cc3cccnc3)ccc1-2 (stereo not shown) [compound 131, 2-(2,3-dihydro-[1,4]dioxino[2,3-b]pyridin-2-ylmethoxy)-9-pyridin-3-ylethynyl-6,7-dihydro-pyrimido[6,1-a]isoquinolin-4-one] |  | 
 |  | CCCCCCCCNc1cc(=O)[nH]c(=O)[nH]1 [6-n-octylaminouracil] | some GPR84 agonist activity | 
0.01 to 100 nM | 0.01 to 100 nM | Cc1cc(COc2ccc3c(c2)CCn2c-3cc(OCC3COc4ncccc4O3)nc2=O)nn1C (stereo not shown) [compound 134, 2-(2,3-Dihydro-[1,4]dioxino[2,3-b]pyridin-2-ylmethoxy)-9-(1,5-dimethyl-1H-pyrazol-3-ylmethoxy)-6,7-dihydro-pyrimido[6,1-a]isoquinolin-4-one] |  | 
 |  | CCCCCCCCCCC(=O)O [undecanoic acid] |  | dose dependently increased
0.01 to 100 nM | 0.01 to 100 nM | O=c1nc(OCC2COc3ncccc3O2)cc2n1CCc1cc(C#Cc3ccncc3)ccc1-2 (stereo not shown) [compound 137, 2-(2,3-dihydro-[1,4]dioxino[2,3-b]pyridin-2-ylmethoxy)-9-pyridin-4-ylethynyl-6,7-dihydro-pyrimido[6,1-a]isoquinolin-4-one] |  | 
 |  | CCCCCCCCCCCC(=O)O [lauric acid] |  | dose dependently increased
 |  | CCCCCCCCCC(=O)O [capric acid] |  | dose dependently increased
100 to 500 nM | 0.01 to 100 nM | N#Cc1ccccc1-c1ccc2c(c1)CCn1c-2cc(OCC2COc3ncccc3O2)nc1=O (stereo not shown) [compound 125, 2-[2-(2,3-Dihydro-[1,4]dioxino[2,3-b]pyridin-2-ylmethoxy)-4-oxo-6,7-dihydro-4H-pyrimido[6,1-a]isoquinolin-9-yl]-benzonitrile] |  | 
0.01 to 100 nM | 0.01 to 100 nM | Cc1ccc(-c2ccc3c(c2)CCn2c-3cc(OCC3COc4ncccc4O3)nc2=O)cn1 (stereo not shown) [compound 139, 2-(2,3-dihydro-[1,4]dioxino[2,3-b]pyridin-2-ylmethoxy)-9-(6-methyl-pyridin-3-yl)-6,7-dihydro-pyrimido[6,1-a]isoquinolin-4-one] |  | 
 |  | c1ccc2c(Cc3c[nH]c4ccccc34)c[nH]c2c1 [3,3′-diindolylmethane] | some GPR84 agonist activity | 
